Values quoted from earlier work in patent US7288559B2, “Carboxamide spirohydantoin CGRP receptor antagonists” (Merck + Co, Inc., priority 2003, dated 2007).
No end group written: not given here.

Assays:
marmoset = conditions: electrical stimulation of the trigeminal ganglion
rats = conditions: electrical stimulation of the dura mater, prior administration
rat = conditions: trigeminal ganglion stimulation

Compound	effect on increase in facial blood flow (marmoset)	effect on increase of middle meningeal artery diameter (rats)	effect on increased facial blood flow (rat)
NCCCC[C@H](NC(=O)[C@@H](Cc1cc(Br)c(O)c(Br)c1)NC(=O)N1CCC(N2Cc3ccccc3NC2=O)CC1)C(=O)N1CCN(c2ccncc2)CC1 [BIBN4096BS]	blocked	–	–
CGRP(8-37): a peptide CGRP antagonist (VTHRLAGLLSRSGGVVKNNFVPTNVGSKAF; ends and bridges not checked; UniProt P06881 90-119, looked up, fragment)	–	blocked	inhibited
